The data set is described as follows: Pharmacokinetics in the HT29 tumor model, non-transfected tumors. The data set is classed as in vivo. The note with it: after i.v. 16 mg/kg Example 60. How it is done: C-2.3 Pharmacokinetics in the HT29 Tumor Model with Mesothelin-Transfected HT29 Cells and Non-Transfected Cells
After i.v. administration of 16 mg/kg from Example 60, the plasma and tumor concentrations of Example 60 were measured along with potentially occurring metabolites such as those of Example 119, for example. […] In the animals with non-transfected tumors, the exposure in the plasma in Example 119 was identical to the exposure in the plasma of animals with transfected tumors. […] This is indicative of a definite targeting effect in the tumor in the presence of the antigen.
Analysis for Quantitation of the Compound from Example 119 […]
In workup of a tumor, it was mixed with a four-fold amount of methanol. […] After agitating again, the tumor sample was ready for measurement.
Finally, the measurement of both matrix samples was performed on the HPLC coupled atmospheric pressure ionization/tandem mass spectrometer by means of turbo ion spray interface (TISP) on an API4000 instrument from the company SCIEX. The following m/z transitions were measured: […]
For the calibration, plasma samples with concentrations of 0.5-2000 μg/L were mixed. The limit of quantitation (LOQ) was 2 μg/L. The linear range was from 2 to 1000 μg/L. […]

In the case of `CC[C@H](C)[C@@H]([C@@H](CC(=O)N1CCC[C@H]1[C@H](OC)[C@@H](C)C(=O)N[C@@]1(C(=O)N2CCCCO2)C[C@@H]1c1ccccc1)OC)N(C)C(=O)[C@@H](NC(=O)[C@H](C(C)C)N(C)CCCC(=O)NNC(=O)CCCCCN1C(=O)CC(SC[C@H](N)C(=O)O)C1=O)C(C)C` (stereo partly drawn) [Example 119, N-(4-{2-[6-(3-{[(2R)-2-amino-2-carboxyethyl]sulfanyl}-2,5-dioxopyrrolidin-1-yl)hexanoyl]hydrazino}-4-oxobutyl)-N-methyl-L-valyl-N-[(3R,4S,5S)-3-methoxy-1-{(2S)-2-[(1R,2R)-1-methoxy-2-methyl-3-{[(1S,2R)-1-(1,2-oxazinan-2-ylcarbonyl)-2-phenylcyclopropyl]amino}-3-oxopropyl]pyrrolidin-1-yl}-5-methyl-1-oxoheptan-4-yl]-N-methyl-L-valinamide], the “AUC in the tumor versus transfected animals” value is “approx. eight times lower” and the “exposure in the plasma versus animals with transfected tumors” value is given as “identical”.
